The record followed here is ChEMBL document CHEMBL1149941, “The design and synthesis of novel hydroxyproline inhibitors of HIV-1 proteinase” (Bioorg Med Chem Lett, 1993).

A value given as a limit tells only on which side of the number the result lay.

In the experiment the target is Human immunodeficiency virus type 1 protease (Human immunodeficiency virus 1, UniProt Q72874). Put plainly: Inhibitory activity against HIV-1 proteinase.
By IC50 is commonly meant the concentration that inhibits the measured activity by half. Read a low IC50 as inhibition by little substance. In the case of `CC(C)CN1CC(O)(CNC(=O)[C@H]2N[C@@H]([C@H](NC(=O)Cc3ccccc3)C(=O)NCc3ccccc3)SC2(C)C)C[C@H]1C(=O)NC(C)(C)C` (stereo not given in full), the midpoint of inhibition, the IC50, lay at 0.07 µM.

For the compound `CC(C)CN1CC(O)(CNC(=O)[C@@H]2N[C@@H]([C@H](NC(=O)Cc3ccccc3)C(=O)NCc3ccccc3)SC2(C)C)C[C@H]1C(=O)NC(C)(C)C` (stereo not given in full), 0.03 µM corresponded to half-maximal inhibition (IC50).

Regarding `CC(C)CN1C[C@](O)([C@H](CC2CCCCC2)NC(=O)CC(C)(C)C)C[C@H]1C(=O)NC(C)(C)C`, the IC50 came out at 9 µM.

As to `CC(C)CN1CC(O)(CNC(=O)OC(C)(C)C)C[C@@H]1C(=O)NC(C)(C)C` (stereo not given in full), the concentration for half-maximal inhibition (IC50) is over 90 µM.

Take `CC(C)CN1CC(O)(CNC(=O)OC(C)(C)C)C[C@H]1C(=O)NC(C)(C)C` (stereo not given in full): the concentration for half-maximal inhibition (IC50) is over 90 µM.
